What was measured:
Format in all cases: cell-based
[1] = target: T1, TetR-ERLBDT2 regulatory fusion protein (UniProt P03372+P04483, G400V/L544A/M543A); test: hFcγRI expression regulated by TetR-ERLBDT2 in CHO K1-FcR/pTE313 clones, FITC-hFc staining and flow cytometry; details: clone D124 (pool C12); OHT present without Dox
T1 construct: 11 amino acid linker […]; expressed in transfected cells; host or cells: CHO K1-FcR cells (CHO K1 with pTE158) stably transfected with pTE313
Procedure: The cells were placed in the culture medium (10% fetal bovine serum, 90% Ham's F-12, 2 mM L-glutamine; all reagents were from Life Technologies, Rockville, Md.) containing 500 G418 (Life Technologies) for 12 days. […] Briefly, cells grown on 10 cm culture plates were washed once with Dulbecco's phosphate-buffered saline (PBS) without calcium chloride and magnesium chloride (Life Technologies). Two milliliters of 0.25% trypsin (Life Technologies) was added to each plate and incubated at 37° C. for 4-5 min. The plates were swirled until the cells detached from the plate. Four milliliters of culture medium was immediately added to each plate of the detached cells. […] Washed cells capable of binding FITC-hFc were measured by flow cytometry on a MOFLO™ cell sorter (Cytomation; Fort Collins, Colo.). […] The total pool of fluorescent cells from the G418-resistant population was collected by flow cytometry, expanded then analyzed by flow cytometry for expression of hFcγRI. […]
Cells were incubated for three days then stained with FITC-hFc to detect the presence of hFcγRI. The top 60% of hFcγRI-positive cells from the culture induced with 1 μg/ml Dox were isolated to yield pool B 11, and cells with the lowest 30% fluorescence were isolated from cells grown in medium without Dox to yield pool B 12. […]

[2] = target: T2, Arc2-ERLBDT2 fusion protein (Homo sapiens, UniProt P03372, G400V/L544A/M543A); test: Time course of 13SC1132 induction in clone C110 after removal of OHT, mean fluorescence of cell surface-displayed protein; details: clone C110 grown in 200 nM OHT, then washed; measured 3, 6 and 9 days after removal
T2 construct: expressed in transfected cells; host or cells: CHO K1/pTE534 cells (A2) or RGC12 cells, a CHO K1 derivative (A3), stably transfected with pTE529
T2 sequence (P03372 with tags, fused parts or gaps G400V/M543A/L544A): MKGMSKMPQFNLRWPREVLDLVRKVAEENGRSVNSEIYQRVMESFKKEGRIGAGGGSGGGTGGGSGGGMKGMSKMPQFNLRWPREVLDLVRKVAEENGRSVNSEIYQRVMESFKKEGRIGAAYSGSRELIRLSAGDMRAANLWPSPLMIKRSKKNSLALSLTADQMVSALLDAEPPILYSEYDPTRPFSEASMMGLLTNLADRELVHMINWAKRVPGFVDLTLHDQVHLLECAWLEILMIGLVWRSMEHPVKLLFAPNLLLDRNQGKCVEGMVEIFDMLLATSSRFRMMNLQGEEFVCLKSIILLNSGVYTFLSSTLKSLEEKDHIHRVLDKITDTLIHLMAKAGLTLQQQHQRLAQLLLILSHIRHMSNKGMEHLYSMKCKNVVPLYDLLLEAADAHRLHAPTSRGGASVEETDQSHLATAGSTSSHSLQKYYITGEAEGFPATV
Procedure: RGC12 cells (2×10^6) were transfected with 5 μg pTE529 encoding the Arc-ERLBDT2 protein driven by a ubiquitin promoter (FIG. 9) using Lipofectamine™ as described above. The cells were placed in the culture medium (10% fetal bovine serum, 90% Ham's F-12, 2 mM L-glutamine; all reagents were from lnvitrogen Life Technologies, Carlsbad, Calif.) containing 10 μg/ml puromycin (CalBiochem) for 14 days. Cells resistant to puromycin, expressing the Arc2-ERLBDT2 fusion protein, were then transfected with pTE689 encoding protein of interest […] (FIG. 8) as described above except the culture medium contained 200 nM OHT. […] Cells that secreted the highest levels of 13SC1132 as measured by 13SC1132 complexed with FcγRI on the cell surface (top 5%) were isolated by flow cytometry on a MOFLO™ cell sorter. Cells were grown in the presence of OHT for 7 days, and treated for screening as described above, but the cells with the lowest 5% cell surface fluorescence were isolated in order to enrich for clones with regulated expression of 13SC1132. Cells were then grown in the absence of OHT, treated for flow cytometry, and single cells with the highest 0.1% fluorescence in this population were isolated, expanded, and screened for 13SC1132 expression in the absence of OHT and tight regulation in the presence of OHT. […]

[3] = target: T2, Arc2-ERLBDT2 fusion protein; test: hFcγRI expression regulated by Arc2-ERLBDT2 in CHO K1/pTE534 cells transfected with pTE529, FITC-hFc staining and flow cytometry
Procedure: CHO K1 cells (2×10^6) were transfected with pTE534 using Lipofectamine™ as described above. The cells were placed in the culture medium (10% fetal bovine serum, 90% Ham's F-12, 2 mM L-glutamine; all reagents were from Invitrogen Life Technologies, Carlsbad, Calif.) containing 400 μg/ml G418 (Invitrogen Life Technologies) for 12 days. Cells resistant to G418 were trypsinized, pooled, and stained with 2 μg/ml of FITC-conjugated human IgG, Fc fragment (FITC-hFc) as described above. […] Cells that expressed hFcγRI bound FITC-hFc and were isolated based on their fluorescence by flow cytometry on a MOFLO™ cell sorter. Cells with the highest 3% fluorescence in this population were isolated, pooled, and expanded. This hFcγRI-positive pool was enriched by repeating the cell surface staining with FITC-hFc and sorting the top 30% most fluorescent cells in the population to yield pool B. Cells in pool B that were among the top 20% expressing hFcγRI were isolated to yield pool C. Pool C2 (CHOK1/pTE534) was used to generate inducible cell lines regulated by Arc-ERLBDT2.
CHO K1/pTE534 cells (2×10^6/dish) were transfected with either pRG985, an empty vector, or pTE529 using Lipofectamine™. […] The cells were stained with FITC-hFc as described above and analyzed by flow cytometry. […] This pool was expanded in the presence of OHT for 10 days, stained for hFcγRI expression and analyzed by flow cytometry. […]

T1 sequence (P04483+P03372 fused P03372:G400V/P03372:M543A/P03372:L544A): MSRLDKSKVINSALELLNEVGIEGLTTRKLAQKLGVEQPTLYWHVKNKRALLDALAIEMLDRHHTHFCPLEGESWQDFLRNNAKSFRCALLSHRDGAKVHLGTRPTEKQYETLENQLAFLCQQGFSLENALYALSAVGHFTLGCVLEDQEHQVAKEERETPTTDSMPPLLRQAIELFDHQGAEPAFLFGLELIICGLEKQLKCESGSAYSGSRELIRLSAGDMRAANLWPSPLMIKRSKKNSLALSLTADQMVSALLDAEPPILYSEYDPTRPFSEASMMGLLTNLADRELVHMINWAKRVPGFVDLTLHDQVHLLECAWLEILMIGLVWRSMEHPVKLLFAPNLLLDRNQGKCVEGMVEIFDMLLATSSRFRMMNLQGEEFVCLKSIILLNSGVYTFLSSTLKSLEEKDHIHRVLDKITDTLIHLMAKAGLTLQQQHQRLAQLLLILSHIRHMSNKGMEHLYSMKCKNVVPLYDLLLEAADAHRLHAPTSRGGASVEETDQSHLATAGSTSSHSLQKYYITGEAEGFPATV

## 4-hydroxytamoxifen [OHT]
[1]
  level of hFcγRI expression: no detectable level of hFcγRI
[2]
  time after OHT removal until full induction of 13SC1132 expression: 6 days
[3]; clone C17, OHT present in the medium
  level of hFcγRI expression: No detectable level of hFcγRI
[3]; sorted pool expanded in the presence of OHT for 10 days
  cells in pool that did not express hFcγRI: Over 70%
